Experiments:
[1] = Detergent action: solubilization of liposomes EPC/EPA (10:1) measured by turbidity; settings: turbidity by spectrophotometer; compared with Triton X-100 (100% solubilization)
From the text: For that, an in vitro model is used which represents the biological membranes, namely liposomes EPC/EPA (egg phosphatidylcholine/egg phosphatidic acid, 10:1).
These liposomes are formed by dissolving the various constituents in chloroform, and then evaporating the said chloroform with the aid of a rotary evaporator. The lipid film obtained is redispersed in water, and then the liposomes are formed by sonication and heating.
The evaluation of the detergent action of the product added to the liposomes is made by measuring the turbidity with the aid of a spectrophotometer.

HepG2 cells [2] = assay: In vitro transfection efficiency, luciferase expression, HepG2 cells; assay type: cell-based; settings: for inhibition of transfection due to the presence of serum proteins (in words): presence vs absence of serum
Description: (§1) The plasmid used is described in Patent WO 97/10343. This construct pCOR_pXL2774 comprises the gene encoding luciferase under the human cytomegalovirus very early gene promoter [hCMV-IE].
(§2) The nucleic acid solutions are diluted to 20 μg/ml in physiological saline (0.15 M NaCl).
(§3) The products described in the invention are dissolved in water at a concentration varying from 40 to 160 μmol and mixed volume for volume with the DNA solution. The final saline concentration is 75 mmol.

HepG2 cells [3] = assay: Toxicity of cytofectant mixtures, protein concentrations in cell lysates, HepG2 cells; settings: for toxicity (in words): up to 160 μM of cationic lipid
Description: (§4) The cells are cultured under appropriate conditions in 24-well microplates (2 cm^2/well) and are transfected while they are in the exponential growth phase and at 50-70% confluence.
(§5) The cells are washed with twice 0.5 cm^3 of medium free of serum proteins and grown again either in serum-free medium (transfection in the absence of serum), or in complete medium (transfection in the presence of serum) 0.05 cm^3 of cytofectant mixture (0.5 μg DNA/well) are added to the cells (3 wells/condition DNA vector). When the cells are transfected in the absence of serum, the growth medium is supplemented 2 hours after transfection with the appropriate quantity of serum.
(§6) The toxicity of the cytofectant mixtures is estimated by a measurement of the protein concentrations in the cell lysates.

HeLa cells [4] = assay: In vitro transfection efficiency, luciferase expression, HeLa cells; assay type: cell-based; settings: for inhibition of transfection due to the presence of serum proteins (in words): presence vs absence of serum
Description: as §1, §2, §3

HeLa cells [5] = assay: Toxicity of cytofectant mixtures, protein concentrations in cell lysates, HeLa cells; assay type: cell-based; settings: up to 160 μM of cationic lipid
Description: as §4, §5, §6

[6] = HepG2 cells, absence of serum proteins
[7] = HeLa cells, absence of serum proteins

Molecule	inhibition of transfection due to the presence of serum proteins (in words) (HepG2 cells [2]; HepG2 cells)	inhibition of transfection due to the presence of serum proteins (in words) (HeLa cells [4]; HeLa cells)	toxicity (in words) (HeLa cells [5])	toxicity (in words) (HepG2 cells [3])	expression of the transgene compared with reference cationic lipid REF (HepG2 cells [2]; [6])	other results
Triton X-100	–	–	–	–	–	solubilization of the liposomes [1]: 100%
CCCCCCCCCCCCCCCCCCNC(=O)C(CSSCC(NC(=O)CNCCCNCCCCNCCCN)C(=O)NCCCCCCCCCCCCCCCCCC)NC(=O)CNCCCNCCCCNCCCN (stereo not shown) [compound (VI), [NH2(CH2)3NH (CH2)4NH (CH2)3NHCH2CO—CyNH (CH2)17CH3]2]	–	–	–	–	–	transgene expression in comparison with reference cationic lipid REF (HepG2 cells [2]; HepG2 cells, absence of serum (FIG. 3)): 4 times; survival (HepG2 cells [3]; transfection in the absence of serum proteins, cationic lipid dose 160 μM): 80%
NH2(CH2)3NH(CH2)4NH(CH2)3NHCH2COCyS-[S—S-Cholesterol]—NH(CH2)17CH3 [compound (V)]	no inhibition could be observed	no inhibition could be observed	no significant toxicity	no significant toxicity	–	gain in expression of the transgene, cholesterol instead of an alkyl chain (in words) (HepG2 cells [2]; HepG2 cells (FIG. 9)): very significant gain; gain in expression of the transgene, cholesterol instead of an alkyl chain (in words) (HeLa cells [4]; HeLa cells (FIG. 9)): very significant gain
NH2(CH2)3NH(CH2)4NH(CH2)3NHCH2COCys-[S—S—(CH2)4CH3]—N[(CH2)17CH3]2 [compound (I)]	no significant inhibition	no significant inhibition	no significant toxicity	no significant toxicity	–	transfection results compared with reference cationic lipid REF (in words) (HepG2 cells [2]; [6]): same order of magnitude; transfection results compared with reference cationic lipid REF (in words) (HeLa cells [4]; [7]): same order of magnitude
NH2 (CH2)3NH(CH2)4NH(CH)3NHCH2COCys-[S—S—(CH2)17CH3]—NH (CH2)17CH3 [compound (II)]	no inhibitory effect	–	–	no significant toxicity	up to 3 fold	improvement of transfection compared with reference cationic lipid REF (HepG2 cells [2]; HepG2 cells, presence of serum proteins): up to 40 fold
NH2(CH2)3NH(CH2)4NH(CH2)3NHCH2COCys-[S—S—(CH2)11CH3]—N[(CH2)17CH3]2 [compound (IV)]	no significant inhibition	no significant inhibition	no significant toxicity	no significant toxicity	about 9 fold	expression of the transgene compared with reference cationic lipid REF (HeLa cells [4]; [7]): about 2 fold
